Residues, ends and D or L forms follow the SMILES beside them. *: point of attachment. Cbz = O=C(OCc1ccccc1)*; CH2F = FC*
How the values were obtained:
Cathepsin H = biological target: T1, Cathepsin H (Homo sapiens, UniProt P09668); assay: Selectivity test (Steps VI and IX), Cathepsin H; format: biochemical; conditions: vehicle 4 X 10^-5 M; pH 6.8, substrate L-R-AFC; 40 µM
T1 sequence (P09668 98-335): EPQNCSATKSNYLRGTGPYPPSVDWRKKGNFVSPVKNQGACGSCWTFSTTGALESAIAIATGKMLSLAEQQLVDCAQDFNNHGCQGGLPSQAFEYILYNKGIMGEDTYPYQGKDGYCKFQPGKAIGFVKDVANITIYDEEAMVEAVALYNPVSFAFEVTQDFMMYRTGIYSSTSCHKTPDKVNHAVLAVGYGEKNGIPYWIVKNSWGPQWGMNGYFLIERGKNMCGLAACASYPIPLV
Experimental: In order to perform the assay, the vehicle (for Step VI) or inhibitor (for Step IX) were incubated with the appropriate substrate in the correct assay buffer and allowed to equilibrate. Subsequently, the protease was added, and the assay was allowed to incubate for an appropriate time. The concentrations used in this experiment were as follows: Vehicle was set up at 4 X 10^-5 M in final assay buffer; Inhibitor was set up at 3 X 10^-10 M in the final assay buffer. Preferably the dosages employed should be the minimal amount of vehicle or inhibitor necessary to induce inhibition. […] Substrates were set up based upon the preferred substrate for cleavage of the particular enzyme.
Positive controls were set up similarly as described for test controls, except that a solvent blank was added in substitution for the inhibitor or vehicle (in a volume equal to the volume of inhibitor or vehicle addition). All of the inhibitors and vehicles could be dissolved in dimethylsulfoxide (DMSO), and therefore, this was the solvent of choice. Negative controls were set up by adding the inhibitor or vehicle and the preferred substrates in a tube without the protease. […]
Percent inhibition was calculated as: %Inhibition = ((AFC positive for "SI"−AFC negative for "SI")−(AFC test−AFC negative for "SI"))/(AFC positive for "SI"−AFC negative for "SI") × 100 [formula] […]

Taenia crassiceps cysts = assay: Scanning electron microscopy of cyst surfaces removed from treated mice; format: in vivo; conditions: cysts removed from treated BALB/c mice
Text: • Figure 1. Free energy diagrams for various profiles and scenarios of enzyme catalysis; from Murphy, 1995. Biochemistry. 34(14):4507-4510: (a) Free energy diagrams for different concentrations of substrate S in catalyzed and in uncatalyzed reactions. Left panel: Profile I. S<Km such that enzyme is in a "loose" binding configuration with substrate. Right panel: Profile II. S>Km such that the enzyme is in a "tight" binding configuration with the substrate. Nomenclature below the figure indicates derivation of various free energy constants which are referred to in the text. […] In this scenario, the transition state is decreased from TSC1 to TSC2 resulting in a net increase of ΔGB from situation 1 to situation 2. […] Since ΔGES is unchanged in this plot, 100% of the additional binding energy is utilized for catalysis. This property and the increase in ΔAGb is the definition of a catalytic event driven by transition state stabilization, with the latter being the defining catalytic parameter; (c) free energy diagram for catalysis driven by ground state destabilization for a Profile II scenario where ES is decreased and TSC is not changed. From the left panel to the right panel, ES is decreased, whereas TS remains unchanged. Consequently, ΔΔGb remains constant although catalysis is noted (thus the free energy of enzyme/transition state binding is unchanged). […]

BALB/c mice = assay: Observation of side effects in treated mice; format: in vivo

Compound | % inhibition (Cathepsin H) [%] | Immune cells observed by SEM on cyst surfaces (Taenia crassiceps cysts) | side effects in treated animals (BALB/c mice; long or short-term period) | side effects in treated mice (BALB/c mice; long-term studies) | side effects / inhibitor toxicity in treated mice (BALB/c mice; mouse, in vivo)
Mu-Leu-Tyr-AFC [Mu-LY-AFC] | 0 | – | – | – | –
CC(C)C[C@H](NC(=O)OCc1ccccc1)C(=O)N[C@@H](CC(C)C)C(=O)N[C@@H](Cc1ccc(O)cc1)C(=O)CF [Z-LLY-FMK, Z-Leu-Leu-Tyr-FMK] (Cbz-Leu-Leu-Tyr-CH2F) | – | presence of adherent immune cells | only negligible side effects | no side effects | no mice showed effects of inhibitor toxicity
